# In PubChem BioAssay AID248 (DTP/NCI, 2004):
# Several values for one entry are separate records, joined by “and”; a condition that tells them apart may be missing. Equal entries are not always repeated. Toxic doses and inconclusive results are not listed.
# System: L1210 leukemia ip in BDF1 mice, survival T/C
# Assay: NCI In Vivo Anticancer Drug Screen. Data for tumor model L1210 Leukemia (intraperitoneal) in B6D2F1 (BDF1) mice
# Settings: higher = longer survival
# How it was run: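 Read-out is survival time, reported as the treated-group measurement over the vehicle-control measurement.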
smiles,measurement,setting,value
COc1ccc2[nH]c3c(C)c4ccncc4c(C)c3c2c1,T/C,"endpoint: mean survival time, dose: 2.5 mg/kg/injection, schedule: Q01DX009 (ip), vehicle: Klucel (hydroxypropylcellulose) (HPC)",93 % of control
same,T/C,"endpoint: mean survival time, dose: 3.12 mg/kg/injection, schedule: Q01DX009 (ip), vehicle: citric acid",113 % of control and 124 % of control
same,T/C,"endpoint: mean survival time, dose: 3.12 mg/kg/injection, schedule: Q01DX009 (ip), vehicle: clinical formulation",109 % of control and 121 % of control
same,T/C,"endpoint: mean survival time, dose: 3.12 mg/kg/injection, schedule: Q04DX003 (ip), vehicle: citric acid",106 % of control
same,T/C,"endpoint: mean survival time, dose: 3.12 mg/kg/injection, schedule: Q04DX003 (ip), vehicle: clinical formulation",104 % of control
same,T/C,"endpoint: mean survival time, dose: 5.0 mg/kg/injection, schedule: Q01DX009 (ip), vehicle: Klucel (hydroxypropylcellulose) (HPC)",106 % of control
same,T/C,"endpoint: mean survival time, dose: 6.0 mg/kg/injection, schedule: Q01DX Z (ip), vehicle: saline",112 % of control
same,T/C,"endpoint: mean survival time, dose: 6.25 mg/kg/injection, schedule: Q01DX009 (ip), vehicle: citric acid",122 % of control
same,T/C,"endpoint: mean survival time, dose: 6.25 mg/kg/injection, schedule: Q04DX003 (ip), vehicle: citric acid",109 % of control and 112 % of control
same,T/C,"endpoint: mean survival time, dose: 6.25 mg/kg/injection, schedule: Q04DX003 (ip), vehicle: clinical formulation",106 % of control and 108 % of control
same,T/C,"endpoint: mean survival time, dose: 9.37 mg/kg/injection, schedule: Q01DX001 (ip), vehicle: other",102 % of control
same,T/C,"endpoint: mean survival time, dose: 9.37 mg/kg/injection, schedule: Q01DX001 (sc), vehicle: other",98 % of control
same,T/C,"endpoint: mean survival time, dose: 9.37 mg/kg/injection, schedule: Q04DX003 (ip), vehicle: other",103 % of control
same,T/C,"endpoint: mean survival time, dose: 9.38 mg/kg/injection, schedule: Q04DX003 (ip), vehicle: clinical formulation",104 % of control
same,T/C,"endpoint: mean survival time, dose: 9.38 mg/kg/injection, schedule: Q04DX003 (ip), vehicle: lactic acid",121 % of control
same,T/C,"endpoint: mean survival time, dose: 10.0 mg/kg/injection, schedule: Q01DX009 (ip), vehicle: Klucel (hydroxypropylcellulose) (HPC)",109 % of control
same,T/C,"endpoint: mean survival time, dose: 12.0 mg/kg/injection, schedule: Q01DX001 (ip), vehicle: saline",106 % of control
same,T/C,"endpoint: mean survival time, dose: 12.0 mg/kg/injection, schedule: Q01DX Z (ip), vehicle: saline",109 % of control and 123 % of control
same,T/C,"endpoint: mean survival time, dose: 12.0 mg/kg/injection, schedule: Q01DX Z (oral), vehicle: saline",116 % of control
same,T/C,"endpoint: mean survival time, dose: 12.5 mg/kg/injection, schedule: Q01DX009 (ip), vehicle: citric acid",150 % of control
same,T/C,"endpoint: mean survival time, dose: 12.5 mg/kg/injection, schedule: Q04DX003 (ip), vehicle: citric acid",116 % of control
same,T/C,"endpoint: mean survival time, dose: 12.5 mg/kg/injection, schedule: Q04DX003 (ip), vehicle: clinical formulation",117 % of control and 120 % of control
same,T/C,"endpoint: mean survival time, dose: 18.75 mg/kg/injection, schedule: Q01DX001 (ip), vehicle: other",108 % of control and 109 % of control
same,T/C,"endpoint: mean survival time, dose: 18.75 mg/kg/injection, schedule: Q01DX001 (sc), vehicle: other",104 % of control
same,T/C,"endpoint: mean survival time, dose: 18.75 mg/kg/injection, schedule: Q04DX003 (ip), vehicle: other",118 % of control
same,T/C,"endpoint: mean survival time, dose: 20.0 mg/kg/injection, schedule: Q01DX009 (ip), vehicle: Klucel (hydroxypropylcellulose) (HPC)",119 % of control
same,T/C,"endpoint: mean survival time, dose: 25.0 mg/kg/injection, schedule: Q01DX001 (ip), vehicle: saline",104 % of control
same,T/C,"endpoint: mean survival time, dose: 25.0 mg/kg/injection, schedule: Q01DX009 (ip), vehicle: citric acid",93 % of control
same,T/C,"endpoint: mean survival time, dose: 25.0 mg/kg/injection, schedule: Q01DX009 (ip), vehicle: clinical formulation",101 % of control
same,T/C,"endpoint: mean survival time, dose: 37.5 mg/kg/injection, schedule: Q01DX001 (ip), vehicle: other",114 % of control and 120 % of control
same,T/C,"endpoint: mean survival time, dose: 37.5 mg/kg/injection, schedule: Q01DX001 (ip), vehicle: saline",104 % of control
same,T/C,"endpoint: mean survival time, dose: 37.5 mg/kg/injection, schedule: Q01DX001 (oral), vehicle: other",118 % of control
same,T/C,"endpoint: mean survival time, dose: 37.5 mg/kg/injection, schedule: Q01DX001 (sc), vehicle: other",113 % of control
same,T/C,"endpoint: mean survival time, dose: 37.5 mg/kg/injection, schedule: Q01DX001 (sc), vehicle: saline",104 % of control
same,T/C,"endpoint: mean survival time, dose: 37.5 mg/kg/injection, schedule: Q04DX003 (oral), vehicle: other",113 % of control
same,T/C,"endpoint: mean survival time, dose: 50.0 mg/kg/injection, schedule: Q01DX001 (ip), vehicle: other",105 % of control
same,T/C,"endpoint: mean survival time, dose: 50.0 mg/kg/injection, schedule: Q01DX001 (ip), vehicle: saline",98 % of control
same,T/C,"endpoint: mean survival time, dose: 50.0 mg/kg/injection, schedule: Q04DX003 (ip), vehicle: clinical formulation",123 % of control
same,T/C,"endpoint: mean survival time, dose: 75.0 mg/kg/injection, schedule: Q01DX001 (ip), vehicle: saline",111 % of control and 113 % of control and 115 % of control
same,T/C,"endpoint: mean survival time, dose: 75.0 mg/kg/injection, schedule: Q01DX001 (oral), vehicle: other",124 % of control
same,T/C,"endpoint: mean survival time, dose: 75.0 mg/kg/injection, schedule: Q01DX001 (oral), vehicle: saline",113 % of control
same,T/C,"endpoint: mean survival time, dose: 75.0 mg/kg/injection, schedule: Q01DX001 (sc), vehicle: other",112 % of control
same,T/C,"endpoint: mean survival time, dose: 75.0 mg/kg/injection, schedule: Q01DX001 (sc), vehicle: saline",100 % of control
same,T/C,"endpoint: mean survival time, dose: 100.0 mg/kg/injection, schedule: Q01DX Z (ip), vehicle: carboxymethylcellulose (CMC)",96 % of control
same,T/C,"endpoint: mean survival time, dose: 100.0 mg/kg/injection, schedule: Q01DX Z (ip), vehicle: saline",109 % of control
same,T/C,"endpoint: mean survival time, dose: 100.0 mg/kg/injection, schedule: Q04DX003 (ip), vehicle: citric acid",110 % of control
same,T/C,"endpoint: mean survival time, dose: 100.0 mg/kg/injection, schedule: Q04DX003 (ip), vehicle: clinical formulation",93 % of control and 103 % of control
same,T/C,"endpoint: mean survival time, dose: 115.0 mg/kg/injection, schedule: Q01DX001 (ip), vehicle: saline",113 % of control
same,T/C,"endpoint: mean survival time, dose: 115.0 mg/kg/injection, schedule: Q01DX Z (oral), vehicle: saline",95 % of control
same,T/C,"endpoint: mean survival time, dose: 150.0 mg/kg/injection, schedule: Q01DX001 (ip), vehicle: saline",118 % of control
same,T/C,"endpoint: mean survival time, dose: 150.0 mg/kg/injection, schedule: Q01DX001 (sc), vehicle: other",120 % of control
same,T/C,"endpoint: mean survival time, dose: 150.0 mg/kg/injection, schedule: Q01DX001 (sc), vehicle: saline",107 % of control
same,T/C,"endpoint: mean survival time, dose: 170.0 mg/kg/injection, schedule: Q01DX001 (ip), vehicle: saline",108 % of control
same,T/C,"endpoint: mean survival time, dose: 170.0 mg/kg/injection, schedule: Q01DX Z (ip), vehicle: saline",104 % of control
same,T/C,"endpoint: mean survival time, dose: 225.0 mg/kg/injection, schedule: Q01DX001 (ip), vehicle: saline",115 % of control
same,T/C,"endpoint: mean survival time, dose: 255.0 mg/kg/injection, schedule: Q01DX Z (ip), vehicle: saline",96 % of control
same,T/C,"endpoint: mean survival time, dose: 255.0 mg/kg/injection, schedule: Q01DX Z (oral), vehicle: saline",106 % of control
same,T/C,"endpoint: mean survival time, dose: 300.0 mg/kg/injection, schedule: Q01DX001 (ip), vehicle: saline",122 % of control
same,T/C,"endpoint: mean survival time, dose: 300.0 mg/kg/injection, schedule: Q01DX001 (sc), vehicle: saline",103 % of control
same,T/C,"endpoint: mean survival time, dose: 600.0 mg/kg/injection, schedule: Q01DX001 (oral), vehicle: other",92 % of control
same,T/C,"endpoint: mean survival time, dose: 600.0 mg/kg/injection, schedule: Q01DX001 (sc), vehicle: saline",111 % of control
same,T/C,"endpoint: mean survival time, dose: 1200.0 mg/kg/injection, schedule: Q01DX001 (oral), vehicle: saline",104 % of control
same,T/C,"endpoint: median survival time, dose: 2.0 mg/kg/injection, schedule: Q03HX008 (oral), vehicle: other",100 % of control
same,T/C,"endpoint: median survival time, dose: 2.0 mg/kg/injection, schedule: Q03HX008 (sc), vehicle: water",100 % of control
same,T/C,"endpoint: median survival time, dose: 4.0 mg/kg/injection, schedule: Q01DX009 (ip), vehicle: other",116 % of control
same,T/C,"endpoint: median survival time, dose: 4.0 mg/kg/injection, schedule: Q01DX009 (oral), vehicle: other",111 % of control
same,T/C,"endpoint: median survival time, dose: 4.0 mg/kg/injection, schedule: Q01DX009 (sc), vehicle: water",100 % of control
same,T/C,"endpoint: median survival time, dose: 4.0 mg/kg/injection, schedule: Q03HX008 (oral), vehicle: other",111 % of control
same,T/C,"endpoint: median survival time, dose: 4.0 mg/kg/injection, schedule: Q03HX008 (sc), vehicle: water",111 % of control
same,T/C,"endpoint: median survival time, dose: 8.0 mg/kg/injection, schedule: Q01DX009 (oral), vehicle: other",111 % of control
same,T/C,"endpoint: median survival time, dose: 8.0 mg/kg/injection, schedule: Q01DX009 (sc), vehicle: water",116 % of control
same,T/C,"endpoint: median survival time, dose: 8.0 mg/kg/injection, schedule: Q03HX008 (oral), vehicle: other",94 % of control
same,T/C,"endpoint: median survival time, dose: 8.0 mg/kg/injection, schedule: Q03HX008 (sc), vehicle: water",122 % of control
same,T/C,"endpoint: median survival time, dose: 16.0 mg/kg/injection, schedule: Q01DX001 (oral), vehicle: other",100 % of control
same,T/C,"endpoint: median survival time, dose: 16.0 mg/kg/injection, schedule: Q01DX001 (sc), vehicle: water",111 % of control
same,T/C,"endpoint: median survival time, dose: 16.0 mg/kg/injection, schedule: Q01DX009 (ip), vehicle: water",111 % of control
same,T/C,"endpoint: median survival time, dose: 16.0 mg/kg/injection, schedule: Q01DX009 (oral), vehicle: other",122 % of control
same,T/C,"endpoint: median survival time, dose: 16.0 mg/kg/injection, schedule: Q03HX008 (oral), vehicle: other",116 % of control
same,T/C,"endpoint: median survival time, dose: 32.0 mg/kg/injection, schedule: Q01DX001 (oral), vehicle: other",111 % of control
same,T/C,"endpoint: median survival time, dose: 32.0 mg/kg/injection, schedule: Q01DX009 (ip), vehicle: other",100 % of control
same,T/C,"endpoint: median survival time, dose: 32.0 mg/kg/injection, schedule: Q01DX009 (ip), vehicle: water",100 % of control
same,T/C,"endpoint: median survival time, dose: 32.0 mg/kg/injection, schedule: Q01DX009 (oral), vehicle: other",105 % of control
same,T/C,"endpoint: median survival time, dose: 32.0 mg/kg/injection, schedule: Q03HX008 (sc), vehicle: water",150 % of control
same,T/C,"endpoint: median survival time, dose: 64.0 mg/kg/injection, schedule: Q01DX001 (oral), vehicle: other",111 % of control
same,T/C,"endpoint: median survival time, dose: 64.0 mg/kg/injection, schedule: Q01DX001 (sc), vehicle: water",111 % of control
same,T/C,"endpoint: median survival time, dose: 64.0 mg/kg/injection, schedule: Q01DX009 (sc), vehicle: water",116 % of control
same,T/C,"endpoint: median survival time, dose: 128.0 mg/kg/injection, schedule: Q01DX001 (oral), vehicle: other",122 % of control
same,T/C,"endpoint: median survival time, dose: 128.0 mg/kg/injection, schedule: Q01DX009 (oral), vehicle: other",111 % of control
same,T/C,"endpoint: median survival time, dose: 256.0 mg/kg/injection, schedule: Q01DX001 (sc), vehicle: water",122 % of control
